# Measured values taken from patent US20140134178A1, “PHOSPHORYLATION OF HISTONES AND USES THEREOF” (H. LEE MOFFITT CANCER CENTER AND RESEARCH INSTITUTE, priority 2012, published 2014).
# Entries after “also recorded” stand apart in the source; their conditions may differ.
# Key:
# Ack1 [1] = target: T1, Ack1 (Homo sapiens, UniProt Q07912); assay type: biochemical; set-up: endogenous in cells; host or cells: LAPC4; conditions: purified Ack1, H4 peptide, ELISA with pY88 antibodies
# Method: WEE1 and Ack1 are two non-receptor tyrosine kinases or NRTKs that have known nuclear functions. To determine whether WEE1 and Ack1 can directly target H4 for Tyr88-phosphorylation, this study performed in vitro kinase assay. In brief, the Streptavidin coated 96-well plates (R&D systems) were incubated with biotinylated H4-derived peptide […] (SEQ ID NO: 64) for 1 hour. The plates were washed and the purified WEE1 or Ack1 were added in kinase buffer (20 mM HEPES, 150 mM NaCl, 0.5% Triton X-100, 10% Glycerol, phosphatase and protease inhibitors) containing ATP and MgCl2. After 2 hours of incubation, plates were washed with phosphate buffered saline containing 0.1% Tween 20 (PBST) and blocked in 3% BSA. The pY88-H4 antibodies (at 1:500 dilution) were added and incubated for 1 hour. Unbound antibodies were washed and HRP-conjugated anti-mouse secondary Antibodies (1:2000) were added. Magnitude of phosphorylation was detected using developer solution (OPD tablets, Sigma) and the plates were read at 450 nm. As a negative control, no kinase and no peptide reactions were used. The biotinylated phosphopeptide […]p[…] (SEQ ID NO: 65) was used as a positive control.
# Ack1 [2] = target: T1, Ack1; assay type: cell-based; set-up: endogenous in cells; host or cells: LAPC4
# Method: The prostate cancer derived cells, LAPC4 were treated with AIM-100 (7 uM, 16 hours). The equal amount of cell lysates were subjected to immunoblotting with H3K9me3 and histone H3 antibodies. […] The histone H3 antibodies were used as a control to indicate equal amount of protein.
# LAPC4 cells were treated with EGF or EGF and AIM-100 and the lysates were immunoblotted with H3K9 dimethyl and H3K27 dimethyl antibodies.
# Ack1 [3] = target: T1, Ack1; assay: H4 Tyr51-phosphorylation in EGF-treated HEK293T cells (IP/immunoblot); assay type: cell-based; set-up: endogenous in cells; host or cells: HEK293T; conditions: serum starved HEK293T, EGF+AIM-100
# Method: To examine whether H4 is a Ack1 kinase substrate, cells were treated with EGF or EGF+Ack1 inhibitor, AIM-100 (Mahajan, K., et al. Prostate 70, 1274-1285 (2010)). Specifically, serum starved HEK293T were treated with EGF or EGF+AIM-100 and cells were harvested. […] Equal amounts of lysates were immunoblotted with H4 antibody or pTyr284-Ack1 antibody.
# [4] = test system: PSA, NKX3,1 and TMPRSS2 genes; assay: Testosterone-independent expression of AR-target genes; assay type: cell-based
# Xenopus laevis embryos = assay: Xenopus embryo injection, gastrulation/epiboly phenotype
# Text: Table 4 provides the phenotype distribution for surviving embryos (raw data are identical to those in Table 3).
# pTyr267-AR = assay: ChIP-qPCR for pTyr267-AR binding to PSA, NKX3.1 and TMPRSS2 AREs in LAPC4 cells; assay type: cell-based; conditions: 0.8 μM, 16 hr
# Method: LAPC4 cells were treated with DHT (5 nM, 16 hr), EGF (10 ng/ml, 1 hr), or EGF and AIM-100 (0.8 μM, 16 hr) and ChIP analysis for pTyr267-AR binding to the PSA, NKX3.1 and TMPRSS2 AREs was performed followed by qPCR. Ack1 inhibition by AIM-100 suppressed recruitment of pTyr-AR to PSA, NKX3,1 and TMPRSS2 promoters (FIGS. 8A-8C).
# Ack1 [5] = assay: Ack1 phosphorylation of histone H3 at Tyr99 in ligand-treated cell lines; assay type: cell-based
# Text: The discovery was made that Ack1 phosphorylates histone H3 at tyrosine 99. To delineate functional consequences of H3 Ty99-phosphorylation, phospho-antibodies were raised. […] Thus, marking of chromatin with H3-Tyr99-phosphorylation within AR-target gene promoters may suppress repressive dimethylation leading to transcriptional activation in androgen-deprived environment of CRPC tumors. This study uncovers a previously unknown mechanism of regulation of pTyr267-AR-target gene expression, which can be therapeutically reversed by suppression of Ack1/AR/pTyr99-H3 signaling by AIM-100.
# [6] = test system: LNCaP-caAck expressing cells; assay: Prostate xenograft tumor growth, LNCaP-caAck cells in castrated nude male mice; assay type: in vivo; conditions: 4 mg/kg of body weight per injection, five times
# Method: Castrated nude male mice were injected with LNCaP-caAck expressing cells. Mice were injected with AIM-100 (4 mg/kg of body weight per injection) on five times (n=8) and tumor volumes were measured.
# Ack1 [7] = target: T2, Ack1 (Homo sapiens, UniProt Q07912, E346K); assay type: biochemical; conditions: 5 uM for 1 hour at 30° C.
# T2 construct: HA; made in house
# T2 sequence (Q07912 whole entry E346K): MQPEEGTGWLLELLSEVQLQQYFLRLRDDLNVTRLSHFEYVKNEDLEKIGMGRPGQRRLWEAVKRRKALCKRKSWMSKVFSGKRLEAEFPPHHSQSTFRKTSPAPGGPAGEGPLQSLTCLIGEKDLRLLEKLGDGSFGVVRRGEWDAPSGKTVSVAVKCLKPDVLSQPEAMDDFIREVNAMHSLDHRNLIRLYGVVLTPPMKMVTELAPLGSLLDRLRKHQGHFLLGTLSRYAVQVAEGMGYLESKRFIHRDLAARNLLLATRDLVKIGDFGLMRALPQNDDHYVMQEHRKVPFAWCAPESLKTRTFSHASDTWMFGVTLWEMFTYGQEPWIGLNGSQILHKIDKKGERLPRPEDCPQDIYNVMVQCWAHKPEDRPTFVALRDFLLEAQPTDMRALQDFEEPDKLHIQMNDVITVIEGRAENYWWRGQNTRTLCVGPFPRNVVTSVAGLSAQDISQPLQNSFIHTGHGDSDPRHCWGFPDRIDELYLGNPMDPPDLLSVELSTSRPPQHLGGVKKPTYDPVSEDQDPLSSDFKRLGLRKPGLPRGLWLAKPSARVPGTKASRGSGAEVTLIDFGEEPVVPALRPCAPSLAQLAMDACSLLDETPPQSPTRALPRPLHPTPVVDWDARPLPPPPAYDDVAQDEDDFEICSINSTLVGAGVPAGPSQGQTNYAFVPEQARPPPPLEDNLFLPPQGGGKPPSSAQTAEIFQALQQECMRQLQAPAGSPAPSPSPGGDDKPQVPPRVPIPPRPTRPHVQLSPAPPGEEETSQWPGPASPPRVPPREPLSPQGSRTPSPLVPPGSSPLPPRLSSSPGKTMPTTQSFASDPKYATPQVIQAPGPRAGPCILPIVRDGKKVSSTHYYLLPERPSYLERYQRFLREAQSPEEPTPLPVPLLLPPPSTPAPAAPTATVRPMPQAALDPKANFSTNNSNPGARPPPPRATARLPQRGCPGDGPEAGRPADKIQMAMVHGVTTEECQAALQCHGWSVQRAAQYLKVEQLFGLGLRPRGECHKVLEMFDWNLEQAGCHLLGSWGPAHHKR
# Method: To test whether Ack1 directly phosphorylates H4, in vitro kinase assay (Mahajan, K., et al. PLoS One 5, e9646 (2010)) was performed. […] HEK293 cells were treated with EGF or EGF+AIM-100 (5 uM, 14 hour) and lysates were immunoprecipitated with Ack1 antibodies followed by immunoblotting with H4 antibodies.
# [8] = test system: core histone genes in Hist1 cluster; assay: Quantitative RT-PCR of core histone transcripts in synchronized MEFs; assay type: cell-based, mouse; conditions: MK1775 0.625 μM, 14 hr; 8.30 hours post-release
# Method: MEFs or H1975 were grown to 60-70% confluency in serum rich media. Thymidine is added at a final concentration of 2 mM and incubated for 17 hours. Cells were washed three times with phosphate buffered saline (PBS) and fresh serum containing media was added. After 10 hours, thymidine was added again to 2 mM final concentration. The cells were incubated for 17 hours and washed three times with PBS, replaced with serum containing media and time points were collected. All RT reactions were done (Mahajan, K. et al. PLoS One 5, e9646 (2010)) at the same time so that the same reactions could be used for all gene studies. For the construction of standard curves, serial dilutions of pooled sample RNA were used (50, 10, 2, 0.4, 0.08, and 0.016 ng) per reverse transcriptase reaction. One “no RNA” control and one “no Reverse Transcriptase” (No RT) controls were included for the standard curve. Three reactions were performed for each sample: 10 ng, 0.8 ng, and a No RT (10 ng) control. Real-time quantitative PCR analyses were performed using the ABI PRISM 7900HT Sequence Detection System (Applied Biosystems). […] Data were analyzed using SDS software version 2.2.2 and exported into an Excel spreadsheet. […]
# [9] = test system: pTyr37-H2B upstream of Hist1 cluster; assay: Native ChIP-qPCR with pTyr37-H2B antibody, Site I and II upstream of Hist1 cluster, synchronized MEFs; assay type: cell-based, mouse; conditions: 6.30 hours post-release
# Method: MEFs or H1975 were grown to 60-70% confluency in serum rich media. Thymidine is added at a final concentration of 2 mM and incubated for 17 hours. Cells were washed three times with phosphate buffered saline (PBS) and fresh serum containing media was added. After 10 hours, thymidine was added again to 2 mM final concentration. The cells were incubated for 17 hours and washed three times with PBS, replaced with serum containing media and time points were collected.
# As a first step, extensive standardization of pTyr37-H2B antibodies were performed for its usage in ChIP. CHIP was performed using the Active Motif kit as per manufacturer's instructions. For ChIP synchronized MEFs were harvested at 0 and 6.30 hour post thymidine release (5×10^7 cells). Cells pellets were lysed in RLB buffer (Mahajan, N. P. et al. Proc. Nat. Acad. Sci. U.S.A. 104, 8438-8443 (2007); Mahajan, K. et al. Prostate 70, 1274-1285 (2010)) on ice for 10 minutes and sonicated for 25 seconds to shear DNA to an average length of 300-500 bp. The soluble chromatin was incubated overnight at 4° C. with pTyr37-H2B antibody. 20 μl of protein-A agarose was added and the beads were washed sequentially and DNA was eluted. […] Pellets were resuspended and the resulting DNA was quantified on a NanoDrop spectrophotometer. Extrapolation to the original chromatin volume allowed quantitation of the total chromatin yield. […]
# [10] = test system: cancers and cancer cell lines; conditions: cited from earlier work
# [11] = test system: core histone genes located in Hist1 cluster; assay: qRT-PCR of histone genes in synchronized cells (8-histone gene signature); assay type: cell-based; conditions: MK1775 0.6 uM, 14 hr; 8.30 hours post-release
# Method: Human cells have 55 distinct histone genes each encoding a fraction of core histones. This study determined histone levels using 20 of these genes. In untreated cells, rapid decrease in transcripts of all of these histone genes was observed when RNA levels of 6.30 hours post-release samples (late S phase) were compared with 8.30 hours post-release (G2/M phase) samples (FIG. 33a-h).
# [12] = test system: WEE1 expressing cancer cell lines; conditions: cited from earlier work
# [13] = test system: NPAT and RNA polymerase II at site II; assay: ChIP-qPCR with NPAT or RNA polymerase II antibodies at Site II, synchronized MEFs; assay type: cell-based, mouse; conditions: 6.30 hours post-release
# Method: As a first step, extensive standardization of pTyr37-H2B antibodies were performed for its usage in ChIP. CHIP was performed using the Active Motif kit as per manufacturer's instructions. For ChIP synchronized MEFs were harvested at 0 and 6.30 hour post thymidine release (5×10^7 cells). Cells pellets were lysed in RLB buffer (Mahajan, N. P. et al. Proc. Nat. Acad. Sci. U.S.A. 104, 8438-8443 (2007); Mahajan, K. et al. Prostate 70, 1274-1285 (2010)) on ice for 10 minutes and sonicated for 25 seconds to shear DNA to an average length of 300-500 bp. The soluble chromatin was incubated overnight at 4° C. with pTyr37-H2B antibody. 20 μl of protein-A agarose was added and the beads were washed sequentially and DNA was eluted. Genomic DNA (Input) was prepared by treating aliquots of chromatin with RNase, proteinase-K followed by ethanol precipitation. Pellets were resuspended and the resulting DNA was quantified on a NanoDrop spectrophotometer. Extrapolation to the original chromatin volume allowed quantitation of the total chromatin yield. An aliquot of chromatin (20-30 μg) was pre-cleared with protein-A agarose beads (Invitrogen). Genomic DNA regions of interest were isolated using pTyr37-H2B antibody. […]
# To understand the potential mechanism of repression of histone transcription the role of NPAT was assessed. […]
# [14] = Table 3, antibodies 200 ng/em, AIM-100 200 pM/em
# T1 sequence (Q07912 whole entry): as the sequence (Q07912 whole entry E346K) above, with K346E counted along it
compound,measurement,setting,value
c1ccc(-c2oc3ncnc(NC[C@@H]4CCCO4)c3c2-c2ccccc2)cc1 [AIM-100],H4 Tyr88-phosphorylation,Ack1 [1],significantly decreased; also recorded: significantly reduced
same,H3K9 and K27 dimethylation and trimethylation,Ack1 [2],increased
same,H3 K9 trimethylation,"Ack1 [2]; LAPC4 cells, 7 uM, 16 hours",increased; also recorded: significant increase
same,H3K9 and K27 dimethylation,"Ack1 [2]; LAPC4 cells, EGF and AIM-100",increased
same,H4 pTyr51-phosphorylation,Ack1 [3],almost complete loss
same,"testosterone-independent expression of PSA, NKX3,1 and TMPRSS2 genes",[4],suppressed
same,"abn/delay, gastrulation is abnormal or delayed (% of total embryos)",Xenopus laevis embryos; [14],6.7%
same,"abn/delay, gastrulation is abnormal or delayed (number of embryos)",Xenopus laevis embryos; [14],15
same,dead (% of total embryos),Xenopus laevis embryos; [14],43%
same,dead (number of embryos),Xenopus laevis embryos; [14],97
same,"epib blk, epiboly block phenotype (% of total embryos)",Xenopus laevis embryos; [14],29%
same,"epib blk, epiboly block phenotype (number of embryos)",Xenopus laevis embryos; [14],65
same,"epib red, partial phenotype (% of total embryos)",Xenopus laevis embryos; [14],8%
same,"epib red, partial phenotype (number of embryos)",Xenopus laevis embryos; [14],18
same,norm. (% of total embryos),Xenopus laevis embryos; [14],11%
same,norm. (number of embryos),Xenopus laevis embryos; [14],24
same,Tot survivors,Xenopus laevis embryos; Table 4,128
same,abn/delay (% of surviving embryos),"Xenopus laevis embryos; Table 4, surviving embryos",(12%)
same,abn/delay (number of surviving embryos),"Xenopus laevis embryos; Table 4, surviving embryos",15
same,epib blk (number of surviving embryos),"Xenopus laevis embryos; Table 4, surviving embryos",65
same,epib red (number of surviving embryos),"Xenopus laevis embryos; Table 4, surviving embryos",18
same,normal (% of surviving embryos),"Xenopus laevis embryos; Table 4, surviving embryos",19%
same,normal (number of surviving embryos),"Xenopus laevis embryos; Table 4, surviving embryos",24
same,mortality rates,"Xenopus laevis embryos; by the onset of gastrulation, ~20 hours after microinjection at the 2-cell stage, 16° C.",43-45%
same,mortality at the onset of gastrulation versus controls,Xenopus laevis embryos; in vivo,Neither pTyr51-H4 nor AIM-100 lead to increased mortality
same,timing or pattern of early cleavages,Xenopus laevis embryos; in vivo,did not alter
same,"epib blk, epiboly block/involution failure (% of surviving embryos)",Xenopus laevis embryos; surviving embryos,51%
same,"epib red, partial reduced epiboly phenotype (% of surviving embryos)",Xenopus laevis embryos; surviving embryos,14%
same,"epib blk, epiboly block/involution failure (% of surviving embryos)","Xenopus laevis embryos; surviving embryos, listed as AIM 100",(51%)
same,"recruitment of pTyr-AR to PSA, NKX3,1 and TMPRSS2 promoters",pTyr267-AR,suppressed
same,Ack1 phosphorylation of H3 at Tyr99,Ack1 [5],significantly compromised
same,prostate xenograft tumor growth,[6],mitigated; also recorded: partially suppresses
same,H4 pTyr51-phosphorylation,Ack1 [7],abrogated
MK-1775,histone mRNA levels,[8],significant increase
same,occurrence of pTyr37-H2B at site I and II,[9],significantly reduced
same,"sensitization to DNA damaging agents such as gemcitabine, 5-fluorouracil",[10],able to sensitize
same,histone mRNA levels,[11],did not decrease
same,apoptosis,[12],selectively induce apoptosis
same,recruitment of NPAT and RNA polymerase II,[13],binding was detected
